Test results published in US10702521B2, “Methods for treating neisseria gonorrhoeae infection with substituted 1,2-dihydro-2A,5,8A-triazaacenaphthylene-3,8-diones” (priority 2014, dated 2020).
Where a name gives a salt, the structure may show the parent alone. Read-outs that look alike come from different tables or passages of the source.

Legend:
[1] = system: Staphylococcus aureus, Streptococcus pneumoniae, Streptococcus pyogenes, Enterococcus faecalis, Enterococcus faecium, Haemophilus influenzae, Moraxella …; assay: Antimicrobial Activity Assay: whole-cell MIC by broth microdilution (CLSI M7-A7); assay type: cell-based, Gram-positive and Gram-negative organisms; details: against a strain of at least one of the organisms listed
Procedure: Whole-cell antimicrobial activity was determined by broth microdilution using the Clinical and Laboratory Standards Institute (CLSI) recommended procedure, Document M7-A7, “Methods for Dilution Susceptibility Tests for Bacteria that Grow Aerobically”. The compounds were tested in serial two-fold dilutions ranging from 0.016 to 16 mcg/ml.
The minimum inhibitory concentration (MIC) was determined as the lowest concentration of compound that inhibited visible growth. A mirror reader was used to assist in determining the MIC endpoint.
Compounds were evaluated against Gram-positive organisms, selected from Staphylococcus aureus, Streptococcus pneumoniae, Streptococcus pyogenes, Enterococcus faecalis and Enterococcus faecium.
In addition, compounds were evaluated against Gram-negative organisms selected from Haemophilus influenzae, Moraxella catarrhalis, Escherichia coli, Pseudomonas aeruginosa, Proteus mirabilis, Enterobacter cloacae, Enterobacter aerogenes, Klebsiella pneumoniae and Stenotrophomonas maltophilia.

[2] = system: Neisseria gonorrhoeae; assay: In vitro MIC by CLSI agar dilution against Neisseria gonorrhoeae isolates; assay type: cell-based; details: for MIC90: Neisseria gonorrhoeae
[3] = system: N. gonorrhoeae MS11; assay: Mouse model of N. gonorrhoeae vaginal colonization; assay type: in vivo, mice; details: for mice in which colonization with N. gonorrhoeae MS11 was eliminated by the end of the study: two studies
Procedure: A mouse model of N. gonorrhoeae vaginal colonization was performed to evaluate the efficacy of compounds of the present invention. Two independent studies were performed by the same laboratory.
In particular, Example 39 (i.e., (2R)-2-({4-[(3,4-Dihydro-2H-pyrano[2,3-c]pyridin-6-ylmethyl)amino]-1-piperidinyl}methyl)-1,2-dihydro-3H, 8H-2a,5,8a-triazaacenaphthylene-3,8-dione hydrochloride) was tested in this model following a single oral dose or a total of two oral doses administered on the same day. Female mice were primed for colonization using estradiol; trimethoprim sulfate and streptomycin were administered to control commensals. On day 0, mice were inoculated intravaginally with N. gonorrhoeae MS11 (Example 39—MIC 1 μg/ml). Successful colonization was confirmed via vaginal swab culture on days 1 and 2. Single oral doses at 100 mg/kg and 200 mg/kg or a total of two oral doses at 100 mg/kg each of Example 39 were administered on day 2. Vaginal swabs for quantitative culture were collected daily through day 10 (8 days post treatment).

[4] = system: N. gonorrhoeae MS11; assay: MIC / susceptibility of N. gonorrhoeae MS11 (strain of the mouse model); assay type: cell-based, Neisseria gonorrhoeae
[5] = system: Mycobacterium tuberculosis H37Rv; assay: Mycobacterium tuberculosis H37Rv Inhibition Assay (resazurin MIC); assay type: cell-based; details: H37Rv strain, six days incubation, resazurin fluorescence after 48 hours, read-out: MIC value
[6] = Estimation of PK parameters from blood samples in mice; assay type: in vivo; details: estimated
Procedure: In one study, blood samples were collected terminally from a separate group of mice at 1, 2, 6 and 12 hours post Example 39 administration (n=3 per time point and dose) to allow for estimation of PK parameters.

Compound	MIC [1] [µg/mL]	MIC90 fold higher than that of ceftriaxone ([2]; 30 isolates of N. gonorrhoeae)	MIC90 fold lower than ciprofloxacin ([2]; 30 isolates of N. gonorrhoeae)	MIC90 ([2]; 30 isolates of N. gonorrhoeae collected 2003 through 2007, read-out: MIC90 (MIC which inhibits 90% of the isolates tested)) [µg/mL]	MIC90 ([2]; second study, all 145 isolates of N. gonorrhoeae, majority collected in 2013, read-out: MIC90) [µg/mL]	MIC90 ([2]; second study, subset of 37 ciprofloxacin-nonsusceptible isolates, read-out: MIC90) [µg/mL]	modal value (MIC) ([2]; against the 9 ciprofloxacin-resistant N. gonorrhoeae tested)	course of colonization after initial clearance ([3]; first study, one mouse in each dose group, not observed in the follow-up study)	mice in which colonization with N. gonorrhoeae MS11 was eliminated by the end of the study ([3]; single oral dose of 100 mg/kg on day 2)	mice in which colonization with N. gonorrhoeae MS11 was eliminated by the end of the study ([3]; single oral dose of 200 mg/kg on day 2)	mice in which colonization with N. gonorrhoeae MS11 was eliminated by the end of the study ([3]; two 100 mg/kg oral doses administered on the same day) [%]	MIC ([4]; Neisseria gonorrhoeae, N. gonorrhoeae MS11) [µg/mL]	change in susceptibility of N. gonorrhoeae MS11 colonies recovered from treated mice ([4]; compared with stock cultures of the organism)	MIC [5] [µg/mL]	fAUC0-24 ([6]; single oral dose of 100 mg/kg) [ng·h/mL]	fAUC0-24 ([6]; single oral dose of 200 mg/kg) [ng·h/mL]	fAUC0-24 ([6]; two 100 mg/kg oral doses on the same day) [ng·h/mL]
O=c1ccc2ccc(=O)n3c2n1C[C@H]3CN1CCC(NCc2cc3c(cn2)COC3)CC1 [Example 9, (1R)-1-({4-[(1,3-Dihydrofuro[3,4-c]pyridin-6-ylmethyl)amino]-1-piperidinyl}methyl)-1,2-dihydro-4H,9H-imidazo[1,2,3-ij]-1,8-naphthyridine-4,9-dione hydrochloride]	≤ 4	–	–	–	–	–	–	–	–	–	–	–	–	–	–	–	–
O=c1ccc2ncc(=O)n3c2n1C[C@H]3CN1CCC(NCc2cc3c(cn2)OCCC3)CC1 [Example 39, (2R)-2-({4-[(3,4-Dihydro-2H-pyrano[2,3-c]pyridin-6-ylmethyl)amino]-1-piperidinyl}methyl)-1,2-dihydro-3H,8H-2a,5,8a-triazaacenaphthylene-3,8-dione hydrochloride]	–	at least 16 fold	at least 8 fold	0.5	0.5	1	remained unchanged	regrowth to a high number of organisms by the end of the study	70-80%	90-100%	100	1	did not demonstrate any change in susceptibility	< 2	8000	22000	16000
